Entries after “also recorded” stand apart in the source; their conditions may differ.

One test deals with HCV replicon cells. Description: HCV replicon assay. Type of test: cell-based. How it is done:
Cells expressing the HCV replicon are seeded onto the internal wells of 96-well plates at a density of 7,000 cells per well. One day later, different dilutions of the test compounds are added to corresponding wells and the plates are incubated in a CO2 incubator for 72 hours. After treatment, the cells are lysed with 70 μl RLN buffer per well (50 mM Tris-HCl [pH8.0], 140 mM NaCl, 1.5 mM MgCl2, 0.5% Nonidet P-40, 1,000 units/mL RNAsin and 1 mM […]). The total lysate is transferred to a new U bottom 96-well plate and nuclei and cell debris are pelleted with a brief spin (300×g for 3 minutes). 50 μl of supernatant is removed from the well and loaded directly onto manifold wells equipped with Nylon membranes. HCV RNA is hybridized at 58° C. overnight using a labeled HCV RNA probe containing a negative strand sequence complement to the NS5B region. Hybridization buffer is composed of 50% formamide, 5×SSPE, 1% SDS, 5×Denhart's solution, and sheared denatured salmon sperm DNA. Following hybridization, the membrane is washed with washing buffer (0.1×SSC, 0.1% SDS) at room temperature for two hours, then at 65° C. for 30 minutes. The radioactivity in each well is counted on a Microbeta counter and EC50 is calculated based on cpm.
Alternatively, HCV replicon cells are trypsinized for 5-10 minutes in a CO2 incubator. Then, cells are placed in a 15 mL tube, and are spun at 1000 rpm for 4 minutes and trypsin solution is removed. Cell pellets are washed once with PBS and spun 4 minutes at 1000 rpm.
Trypsinization and wash steps, supra, are conducted efficiently to minimize cell death. PBS is removed and cells are resuspended in 4 mL fresh PBS and cells are seeded at a dilution of 5000 cells per well to 96 well plates. Test compounds are diluted in 96 well U bottom plates with DMEM (high glucose) (BRL, Catalog #21063) supplemented with 10% FBS, L-glutamine, and non-essential amino acid. 100 uL of test compound is loaded into each well. […]
100 uL of development solution (TMB one-step substrate system) is added and plates are developed in the dark for 10 to 30 minutes. […] OD450 is measured.
Background: In antiviral work, replicon cells carry a viral genome segment that copies itself.

Test [1] has as its target T1, synthetic NS4A (Hepatitis C virus genotype 1b, UniProt Q9WMX2).
T1 construct: The full length of NS4A (54 amino acids) is synthesized; made in house
Description: Competition assay for NS4A binding against [3H] labeled azidoacylthiourea. On the set-up: species or system HCV. As to the method:
(§1) To determine whether acylthiourea compounds bind to NS4A, a photo-affinity labeling is carried out, in which an [^3H] labeled photo-reactive azidoacylthiourea, 1-(5-Azido-benzofuran-2-carbonyl)-3-(4-pentyloxy-3-trifluoromethyl-phenyl)-thiourea, is mixed with synthetic NS4A at various molar ratios. The mixture is incubated at 31° C. for one hour. Samples are then illuminated by a UV lamp (254 nm wavelength) at room temperature for 7 minutes. After denaturing with equal volume of Laemmli buffer containing 5% mercaptoethanol at 99° C. for 5 minutes, samples are separated on a 10-20% SDS-PAGE. After electrophoresis, the gel is fixed with 30% methanol-10% acetic acid overnight. Then the gel is treated with 3H enhancer solution (PerkinElmer) at room temperature for one hour, and subsequently with water for 30 minutes, and dried under vacuum.
To study the binding specificity of [^3H] labeled 1-(5-Azido-benzofuran-2-carbonyl)-3-(4-pentyloxy-3-trifluoromethyl-phenyl)-thiourea to synthetic NS4A, several structurally related compounds are used in the following competition assays. Non-labeled 1-(5-Azido-benzofuran-2-carbonyl)-3-(4-pentyloxy-3-trifluoromethyl-phenyl)-thiourea shares the same structure with [^3H] labeled 1-(5-Azido-benzofuran-2-carbonyl)-3-(4-pentyloxy-3-trifluoromethyl-phenyl)-thiourea. 1-(5-Azido-benzofuran-2-carbonyl)-3-(4-pentyloxy-3-trifluoromethyl-phenyl)-urea differs in structure from 1-(5-Azido-benzofuran-2-carbonyl)-3-(4-pentyloxy-3-trifluoromethyl-phenyl)-thiourea in that 1-(5-Azido-benzofuran-2-carbonyl)-3-(4-pentyloxy-3-trifluoromethyl-phenyl)-urea has a carbonyl group where 1-(5-Azido-benzofuran-2-carbonyl)-3-(4-pentyloxy-3-trifluoromethyl-phenyl)-thiourea has a thiocarbonyl group. […]

Another test concerns the target NS3 protease domain (Hepatitis C virus genotype 1b, UniProt Q9WMX2). Description: Photo-affinity labeling binding assay, NS3 protease domain. On the set-up: species or system HCV. The conditions noted are these: 3.3 μM protein. As to the method:
as §1
(§2) One band corresponds to NS4A monomer, which is also detectable with Coomassie blue staining (FIG. 3). […] Without being bound by any particular theory, it is believed that this band may be composed largely of polymer form or aggregates of NS4A. At the same time, full-length NS3 and NS3 protease domain is included in this binding assay.

For a further test, the target named is full-length NS3 (Hepatitis C virus genotype 1b, UniProt Q9WMX2). Description: Photo-affinity labeling binding assay, full-length NS3. On the set-up: species or system HCV. The conditions noted are these: 3.3 μM protein. As to the method: as §1, §2
Chain of full-length NS3 (Q9WMX2 1027-1657): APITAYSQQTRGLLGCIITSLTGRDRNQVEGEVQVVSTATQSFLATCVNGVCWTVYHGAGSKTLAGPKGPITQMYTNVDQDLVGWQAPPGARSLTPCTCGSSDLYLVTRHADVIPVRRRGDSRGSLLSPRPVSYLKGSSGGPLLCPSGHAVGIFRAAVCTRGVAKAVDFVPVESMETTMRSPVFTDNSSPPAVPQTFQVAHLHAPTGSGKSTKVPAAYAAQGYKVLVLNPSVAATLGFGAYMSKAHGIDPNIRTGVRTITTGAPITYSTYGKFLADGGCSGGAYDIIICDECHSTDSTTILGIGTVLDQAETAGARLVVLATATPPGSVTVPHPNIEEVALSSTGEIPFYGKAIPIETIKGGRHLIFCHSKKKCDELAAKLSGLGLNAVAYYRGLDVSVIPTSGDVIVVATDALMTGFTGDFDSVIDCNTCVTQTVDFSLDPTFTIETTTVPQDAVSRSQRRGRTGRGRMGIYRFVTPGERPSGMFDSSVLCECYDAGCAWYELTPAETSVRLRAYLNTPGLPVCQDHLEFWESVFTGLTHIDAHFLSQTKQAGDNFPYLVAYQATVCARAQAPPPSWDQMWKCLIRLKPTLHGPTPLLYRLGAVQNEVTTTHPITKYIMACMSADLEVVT
Test [2] concerns the target T1, synthetic NS4A. Description: Photo-affinity labeling of synthetic NS4A. The conditions noted are these: [3H] labeled compound, UV 254 nm photolysis, SDS-PAGE. In kind it is binding, HCV. As to the method:
Experiments are undertaken to investigate the affinity and binding specificity of acylthiourea compounds to NS4A. The full length of NS4A (54 amino acids) is synthesized, and characterized with mass spectral analysis and HPLC profiling. An NS4A sample is then dissolved in 100% dimethylsulphoxide (DMSO) at a concentration of 2 μg/μl, and subjected to a 10-20% SDS-PAGE with a reducing reagent. A 6 kDa protein band, consistent with the size of NS4A, is detected in the gel following a Coomassie blue staining. The NS4A identity of this band is further confirmed by a Western blot with monoclonal anti-NS4A antibody.
as §1, with “Then the gel is treated with 3H enhancer solution (PerkinElmer) at room temperature for one hour, and subsequently with water for 30 minutes, and dried under vacuum.” left out

T1 sequence (Q9WMX2 1658-1711): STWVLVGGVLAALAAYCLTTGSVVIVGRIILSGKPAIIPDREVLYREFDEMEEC
Chain of NS3 protease domain (Q9WMX2 1027-1208): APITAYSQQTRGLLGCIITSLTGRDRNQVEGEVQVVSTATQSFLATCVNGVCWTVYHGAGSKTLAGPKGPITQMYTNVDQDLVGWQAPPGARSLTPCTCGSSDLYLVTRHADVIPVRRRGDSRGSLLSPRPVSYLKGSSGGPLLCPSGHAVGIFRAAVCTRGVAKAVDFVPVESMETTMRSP

Regarding `CCCCCOc1ccc(NC(=S)NC(=O)c2cccnc2)cc1C(F)(F)F` [1-(4-Pentyloxy-3-trifluoromethyl-phenyl)-3-(pyridine-3-carbonyl)-thiourea], the “anti-HCV activity in replicon cells” value with HCV replicon cells is “exhibit anti-HCV activities”. Further, on synthetic NS4A [1], the “competition with [3H] labeled azidoacylthiourea for NS4A binding” value (“competition” below) was “effectively compete”.
`CCCCCOc1ccc(NC(=S)NC(=O)c2cc3ccccc3o2)cc1C(F)(F)F` [1-(Benzofuran-2-carbonyl)-3-(4-pentyloxy-3-trifluoromethyl-phenyl)-thiourea]: the “anti-HCV activity in replicon cells” value with HCV replicon cells is reported as “exhibit anti-HCV activities”. For the same molecule, at synthetic NS4A [1], the “competition” value is recorded as “effectively compete”.
As to `CCCCCOc1ccc(NC(=S)NC(=O)c2cc3cc(N=[N+]=[N-])ccc3o2)cc1C(F)(F)F` [1-(5-Azido-benzofuran-2-carbonyl)-3-(4-pentyloxy-3-trifluoromethyl-phenyl)-thiourea], the “binding to NS3 protease domain” value on NS3 protease domain is “weak binding signals”. In addition, the “binding to full-length NS3” value on full-length NS3 is reported as “weak binding signals”. For the same molecule, the “binding to synthetic NS4A” value at synthetic NS4A [2] is “binds to synthetic NS4A; also recorded: two radioactive bands”.
With `CCCCCOc1ccc(NC(=O)NC(=O)c2cc3cc(N=[N+]=[N-])ccc3o2)cc1C(F)(F)F` [1-(5-Azido-benzofuran-2-carbonyl)-3-(4-pentyloxy-3-trifluoromethyl-phenyl)-urea], in the test with HCV replicon cells, the “anti-HCV activity in replicon cells” value is on record as “does not exhibit any anti-HCV activity”. The “competition” value at synthetic NS4A [1] was “does not compete; also recorded: abolish this competition capacity”.
